The source of these data is patent publication US20250241901A1, “ACTIVATION OF MNRR1 / CHCHD2 AS A THERAPEUTIC TARGET FOR MITOCHONDRIA ASSOCIATED DISORDERS” (Wayne State University, priority 2024, published 2025).

For one data set, the system named is MNRR1. In words: MNRR1 transcript and protein levels in decidua and placenta of LPS-injected dams. The class given is in vivo, mouse. As to the method: FIGS. 2A-2F. Nitazoxanide prevents preterm delivery and improves neonatal mortality in vivo. (FIG. 2A) Schematic illustration depicting the administration of nitazoxanide (marketed under the commercial name Alinia) and LPS in the murine model of preterm birth. (FIG. 2B) Gestational length of mice was obtained using video-monitoring until delivery (n=6-8 animals). (FIG. 2C) Neonatal mortality was determined by calculating the number of dead pups over total litter size (n=6-8 animals). […] No pups from LPS-injected dams survived beyond week 0 of birth. (FIG. 2E) MNRR1 transcript levels were measured in mouse decidual tissue (17.5 dpc). Actin was used as a housekeeping gene to normalize expression (n=4 animals for all except PBS+N, where n=3). (FIG. 2F) Equal amounts of whole placental lysates were separated on an SDS-PAGE gel and probed for MNRR1 levels. Actin was used as a loading control. Gel is representative of data obtained from 2 animals. […]
Real-time polymerase chain reaction: Total cellular RNA was extracted from mouse placental tissues or HTR8 cells by using a RNeasy Plus Mini Kit (Qiagen, Germantown, MD, USA), according to the manufacturer's instructions. […] Transcript levels were measured by real-time PCR by using SYBR green on an ABI 7500 system. […]

For data set [1] the following is noted: single dose of 4 gm, adult humans; cited from earlier work.
A further data set deals with MELAS cybrid cells. In words: Oxygen consumption of MELAS cybrid cells (Seahorse). The class given is cell-based, human. The settings on record: 10 μM, 48 h. As to the method:
FIGS. 7A-7E: MNRR1 activation by tizoxanide enhances mtDNA biogenesis and mitophagy to shift heteroplasmy in MELAS cells. FIG. 7A: Oxygen consumption measured from MELAS cybrid cells treated with vehicle (DMSO) or tizoxanide (10 μM) for 48 h (n=4 biological replicates, error bars represent SE). FIG. 7B: Haelll restriction enzyme digestion of a PCR-amplified fragment of mtDNA harboring the m.3243A>G mutation from DW7 cells treated with vehicle (DMSO) or tizoxanide (10 μM) for 144 h. […] FIG. 7C: Genes identified using qPCR of MELAS cybrid cells stably overexpressing EV or MNRR1. FIG. 7D: MtDNA levels are shown relative to nuclear DNA (nDNA) (GAPDH) (n=5 biological replicates, error bars represent SE). […]
FIGS. 11A-11F: RBPJk and HIF2α compete for binding at the ORE in the MNRR1 promoter to regulate transcription. […] FIG. 11E: Oxygen consumption measured from Control or HIFα knockdown (KD) MELAS cybrid cells. […] FIG. 11F: Left, Oxygen consumption measured from MELAS cybrid cells treated with vehicle (DMSO) or PT2385 (10 μM), an inhibitor of HIF2α function, for 24 h. […]
Intact cellular oxygen consumption and measurement of ATP: Cellular oxygen consumption was measured with a Seahorse XFe24 Bioanalyzer (Agilent). Cells were plated at a concentration of 3.5×10^4 per well a day prior to treatment and basal oxygen consumption was measured 48 h after treatments, as described. […]

`CC(=O)Oc1ccccc1C(=O)Nc1ncc([N+](=O)[O-])s1` [nitazoxanide, Nitazoxanide]: the “MNRR1 transcript level in the decidua” value with MNRR1 (17.5 dpc) is “restored the LPS-induced reduction of MNRR1”. In addition, the “MNRR1 protein level in the placenta” value in the data set on MNRR1 (whole placental lysates) was “restored the LPS-induced reduction of MNRR1”. In addition, the adverse effects entry in data set [1] is “did not result in any adverse effects”.

Consider `O=C(Nc1ncc([N+](=O)[O-])s1)c1ccccc1O` [tizoxanide, Tizoxanide], for which the oxygen consumption result in the data set on MELAS cybrid cells was “increased”.
